Where “and” joins values, the source holds several entries; their conditions need not be identical. Equal entries are not always repeated.
Tests used:
Type in all cases: cell-based, Escherichia coli
BW25113RFzero-iy strain = conditions: LB liquid culture medium with the non-natural amino acid added, shaking at 37° C. overnight
Description: First, a minute amount of glycerol stock of a BW25113RFzero-iy strain was added to (i) an LB liquid culture medium and (ii) an LB liquid culture medium to which 3-iodotyrosine (IY), 3-bromotyrosine (BrY) or 3-chlorotyrosine (CIY) had been added, and incubated with shaking at 37° C. overnight. In this way, the growth of the BW25113RFzero-iy strain was examined.

BW25113 (prfA+ strain) = assay: Efficiency of non-natural amino acid introduction at UAG codon in prfA+ strain (western blotting, TRX-GST fusion); conditions: prfA+ condition, compared with 3-iodotyrosine
Text: In this experiment, a GST gene containing a UAG codon near the N terminal was introduced, together with an expression unit for introducing a non-natural amino acid, into BW25113 which was a prfA^+ strain. Then, the efficiency of translation was checked. The GST gene containing a UAG codon near the N terminal is incorporated in a plasmid so that a fusion protein of the GST and thioredoxin (TRX) is produced (refer to (a) of FIG. 31). The result is shown in (b) of FIG. 31. […] The strain shown in Lane 1 contains no construct that introduces a non-natural amino acid. As is clear from Lanes 4 to 6, strains into each of which a construct for assigning a UAG codon to 3-iodotyrosine, 4-azidophenylalanine or o-sulfotyrosine has been introduced generate total-length fusion proteins in the presence of corresponding non-natural amino acids (see arrow A in (b) of FIG. 31). Further, in these strains, proteins resulting from termination of translation at the UAG codon were also produced (see arrow B in (b) of FIG. 31). The number in parentheses below each lane indicates the percentage (%) of total-length fusion protein with respect to the sum of the proteins resulting from termination of translation and the full-length fusion protein thus produced. That is, the number indicates the efficiency of non-natural amino acid introduction at the UAG codon. […]

[1] = tested on: RFzero-iy strains (BW25113RFzero-iy, HMS174RFzero-iy, BL21RFzero-iy); assay: Dependence of growth on 3-iodotyrosine, spotting on non-selective LB culture medium; conditions: non-selective LB culture medium with or without 3-iodotyrosine
Description: Furthermore, how much the growth of each of the RFzero-iy strains depends on non-natural amino acids was checked. A cell culture having been incubated overnight was diluted, the diluted culture was spotted on (i) a non-selective LB culture medium containing 3-iodotyrosine and (ii) a non-selective LB culture medium containing no 3-iodotyrosine. The media were further incubated. […] This is consistent with the fact that UAG translation activity is necessary in a cell to avoid lethality caused by prfA knockout.

RFzero-q3 strain = assay: Chloramphenicol (Cm) resistance of cat(13Am) transformant; conditions: RFzero-q3 strain with cat(13Am); listed as Cm
Description: (§1) In order to examine if the UAG translation efficiency was improved, a cat(13Am) in which all 13 of the glutamine codons on the cat gene were replaced with UAG was introduced into the RFzero-q3 and RFzero-q7 strains, respectively. […] This was lower than Cm resistance (400 μg/ml) in the HST08 and RFzero-q strains transformed with pACYC184 carrying the wild-type cat gene.

RFzero-q7 strain = assay: as above; conditions: RFzero-q7 strain with cat(13Am)
Description: as §1

RFzero-q strain = assay: Chloramphenicol (Cm) resistance of cat transformants
Text: In order to confirm that the RFzero-q strain allows insertion of a glutamic acid at an amber codon, the RFzero-q strain was transformed with a mutated gene which codes for chloramphenicol acetyltransferase (cat), in which mutated gene there are three amber codons in ORF (such a mutated gene is referred to as cat(3Am)). […] The “X”s in the amino acid sequence shown in (a) of FIG. 5 indicate the positions of amber codons of the cat(3Am), and are glutamic acids in the case of the RFzero-q strain (SEQ ID NO: 17).
(§2) Furthermore, a RFzero-q strain was transformed with a mutated gene which codes for cat, and in which mutated gene there are ten amber codons in ORF (such a mutated gene is referred to as cat(10Am)). […] The “X”s in the amino acid sequence shown in (b) of FIG. 5 indicate positions of amber codons of the cat(10Am), and are glutamic acids in the case of the RFzero-q strain (SEQ ID NO: 18).
as §1

HST08 = assay: as above
Text: as §2, §1

**Q.** With `N[C@@H](Cc1ccc(O)c(Br)c1)C(=O)O` [BrY, 3-bromotyrosine] as the molecule, how does the OD600 (BW25113RFzero-iy strain) read?
**A.** 1.39

**Q.** `[N-]=[N+]=Nc1ccc(C[C@H](N)C(=O)O)cc1` [AzF, 4-azidophenylalanine] was tested. Which “Efficiency of non-natural amino acid introduction at the UAG codon” value (BW25113 (prfA+ strain)) did it give?
**A.** lower efficiency than 3-iodotyrosine

**Q.** Which results are given for `N[C@@H](Cc1ccc(O)c(I)c1)C(=O)O` [IY, 3-iodotyrosine]?
**A.** OD600 (BW25113RFzero-iy strain): 1.36; Dependence of growth on the non-natural amino acid [1]: totally depended on the presence of 3-iodotyrosine

**Q.** `O=C(N[C@H](CO)[C@H](O)c1ccc([N+](=O)[O-])cc1)C(Cl)Cl` [chloramphenicol] was tested. Which Cm resistance (RFzero-q3 strain) did it give?
**A.** 200 µg/mL and ~400 µg/mL

**Q.** What about the Cm resistance (RFzero-q7 strain) of the same molecule?
**A.** 200 µg/mL

**Q.** And the “Cm resistance (chloramphenicol concentration in culture medium up to which resistance was shown)” value (RFzero-q strain; RFzero-q strain transformed with cat(3Am))?
**A.** 400 µg/mL

**Q.** And the “Cm resistance (chloramphenicol concentration in culture medium up to which resistance was shown)” value (RFzero-q strain; RFzero-q strain transformed with cat(10Am))?
**A.** 200 µg/mL

**Q.** And the Cm resistance (RFzero-q strain; RFzero-q strain transformed with pACYC184 carrying the wild-type cat gene)?
**A.** 400 µg/mL

**Q.** What about the “Cm resistance (chloramphenicol concentration in culture medium up to which resistance was shown)” value (RFzero-q strain; RFzero-q strain transformed with wild-type cat) of the same molecule?
**A.** 400 µg/mL

**Q.** What about the “Cm concentration at which the strain did not grow” value (HST08; HST08 into which cat(10Am) had been introduced) of the same molecule?
**A.** < 10 µg/mL

**Q.** What about the Cm resistance (HST08; HST08 transformed with pACYC184 carrying the wild-type cat gene) of the same molecule?
**A.** 400 µg/mL

**Q.** Which OD600 (BW25113RFzero-iy strain) does the source give for `N[C@@H](Cc1ccc(O)c(Cl)c1)C(=O)O` [ClY, 3-chlorotyrosine] here?
**A.** 1.41

Reference: patent US9340790B2, “Method for constructing recombinant bacterium for producing non-native protein, and utilization of same” (RIKEN, priority 2010, dated 2016)
